According to patent publication US10308595B2, “Albicidin derivatives, their use and synthesis” (priority 2013, dated 2019):

Key:
[1] = tested on: test strains of the agar plate tests; assay: Test agar plates, control substance in the same tests (strains not named individually); assay type: cell-based; settings: active substance 1 mg/ml
Description: The dry compounds were dissolved in DMSO (1 mg/ml) and the so obtained stock solution was diluted with sterilized Millipore water 1:10 and 1:100
20 μl of cryo stock of each strain were inoculated to 20 ml of Mueller-Hinton medium and grown overnight at 30° C. or 37° C. on a vertical shaker with 160 rpm. The inoculum for the test was adjusted by the 0.5 McFarland Standard (OD625 from 0.08 to 0.1)
Every plate is prepared by pouring 10 ml Mueller-Hinton agar into standard petri dishes (diam 94 mm). The so obtained Mueller-Hinton plates are overlayed with 4 ml Mueller-Hinton soft agar containing 100 μl suspension of the test strain.
After the soft agar turned solid, sterile susceptibility test discs were circular placed on the agar and on every test disc 10 μl compound was added. Each concentration is tested in triplicate. The agar dishes were incubated for 18 hours at a temperature of 30° C. or 37° C. Results are obtained by measuring the diameter of inhibition area around each test disc.
Test Agar Plates (Active Substance 1 mg/ml) Control Substance: […]

[2] = tested on: Escherichia coli strains expressing albicidin resistance determinants (DH5aAlbr, albD, alb14, alb19, sbmC); assay: Microbiological assay (Zhang et al.) for cross-resistance; assay type: cell-based; settings: synthetic versus natural albicidin, FIG. 11
Description: The microbiological assay described by Zhang et al., (J Appl Microbiol., 1998, 85, 1023-8) was used to study cross-resistance between synthetic albicidin (10) and the natural product albicidin purified from albicidin heterologous host developed by Vivien et al. (Antimicrob Agents Chemother., 2007, 51, 1549-52). Several Escherichia coli strains expressing a wide range of albicidin resistance determinants were used for this microbiological bioassay: strain DH5aAlbr (a spontaneous albicidin-resistant DH5a derivative; Rott et al., (J. Bacteriol., 1996, 178, 4590-4596.) and strains harboring albD (an albicidin-detoxifying gene, Zhang and Birch (Proc. Natl. Acad. Sci. USA, 1997, 94, 9984-9989.), alb14 (an albicidin efflux pump gene conferring albicidin resistance in E. coli, Bostock et al., (J. Appl. Microbiol., 2006, 101, 151-160.), alb19 (a McbG gene conferring albicidin resistance in E. coli, Hashimi et al. (Antimicrob. Agents Chemother., 2007, 51, 181-187.), or sbmC (a microcin B17 resistance gene, Baquero et al. (Mol. Microbiol., 1995, 18, 301-311.).

| Compound | diameter of inhibition, control substance in the same tests [1] | resistance pattern (cross-resistance) in albicidin-resistant E. coli strains [2] |
| --- | --- | --- |
| COc1c(NC(=O)c2ccc(NC(=O)c3ccc(NC(=O)[C@H](CC#N)NC(=O)c4ccc(NC(=O)/C(C)=C/c5ccc(O)cc5)cc4)cc3)c(OC)c2O)ccc(C(=O)O)c1O [Natural albicidin, Albicidin] | more than 1 cm |  |
| COc1c(NC(=O)c2ccc(NC(=O)c3ccc(NC(=O)[C@H](CC#N)NC(=O)c4ccc(NC(=O)/C(C)=C/c5ccc(O)cc5)cc4)cc3)c(OC)c2O)ccc(C(=O)O)c1O [synthetic albicidin (10), (S,E)-4-(4-(4-(3-cyano-2-(4-(3-(4-hydroxyphenyl)-2-methylacrylamido)benzamido)propanamido)benzamido)-2-hydroxy-3-methoxybenzamido)-2-hydroxy-3-methoxybenzoic acid] |  | exactly the same |
